Laboratory results reported in patent publication US6933313B2, “Substituted carbazoles as inhibitors of sPLA2” (Eli Lilly and Company, priority 2001, dated 2005).

Target: T1, recombinant human secreted phospholipase A2 (Homo sapiens, UniProt P14555)
T1 sequence (P14555 21-144): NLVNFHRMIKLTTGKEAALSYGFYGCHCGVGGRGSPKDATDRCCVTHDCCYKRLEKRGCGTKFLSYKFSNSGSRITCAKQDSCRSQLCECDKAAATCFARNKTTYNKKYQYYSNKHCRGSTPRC
Test: Chromogenic assay for inhibitors of recombinant human secreted phospholipase A2 (Assay Example 1)
Assay type: biochemical
Conditions: diheptanoyl thio-PC substrate, pH 7.5, absorbance at 405 nm, triplicate
Excerpt: The following chromogenic assay procedure was used to identify and evaluate inhibitors of recombinant human secreted phospholipase A2. The assay described herein has been adapted for high volume screening using 96 well microtiter plates. A general description of this assay method is found in the article, “Analysis of Human Synovial Fluid Phospholipase A2 on Short Chain Phosphatidylcholine-Mixed Micelles: Development of a Spectrophotometric Assay Suitable for a Microtiterplate Reader”, by Laure J. Reynolds, Lori L. Hughes, and Edward A Dennis, Analytical Biochemistry, 204, pp. 190-197, 1992 (the disclosure of which is incorporated herein by reference):
REACTION BUFFER— • CaCl2·2H2O (1.47 g/L) • KCl (7.455 g/L) • Bovine Serum Albumin (fatty acid free) (1 g/L)(Sigma A-7030, product of Sigma Chemical Co., St. Louis Mo., USA) • TRIS HCl (3.94 g/L) • TRIS=(tris(hydroxymethyl)aminomethane) pH 7.5 (adjust with NaOH)
ENZYME BUFFER— • 0.05 NaOAc·3H2O, pH 4.5 • 0.2 NaCl • Adjust pH to 4.5 with acetic acid
DTNB— • 5,5′-dithiobis-2-nitrobenzoic acid
RACEMIC DIHEPTANOYL THIO—PC • racemic 1,2-bis(heptanoylthio)-1,2-dideoxy-sn-glycero-3-phosphorylcholine • TRITON X-100 prepare at 6.249 mg/ml in reaction buffer to equal […] • TRITON X-100 is a polyoxy ethylene non-ionic detergent supplied by Pierce Chemical Company, 3747 N. Meridian Road, Rockford, Ill. 61101.
REACTION MIXTURE— • A measured volume of racemic dipheptanoyl thio PC supplied in chloroform at a concentration of 100 mg/ml is taken to dryness and redissolved in 10 millimolar TRITON X-100 nonionic detergent aqueous solution. Reaction Buffer is added to the solution, then DTNB to give the Reaction Mixture.
The reaction mixture thus obtained contains 1 mM diheptanoly thio-PC substrate, 0.29 mm TRITON X-100 detergent, and 0.12 mm DTMB in a buffered aqueous solution at pH 7.5.
• 1. Add 0.2 ml reaction mixture to all wells; • 2. Add 10 ul test compound (or solvent blank) to appropriate wells, mix 20 seconds; • 3. Add 50 nanograms of sPLA2 (10 microliters) to appropriate wells; • 4. Incubate plate at 40° C. for 30 minutes; • 5. Read absorbance of wells at 405 nanometers with an automatic plate reader.
All compounds were tested in triplicate. Typically, compounds were tested at a final concentration of 5 ug/ml. […] Lack of color development at 405 nanometers evidenced inhibition. Compounds initially found to be active were reassayed to confirm their activity and, if sufficiently active, IC50 values were determined. […] In all cases, % inhibition measured at 405 nanometers generated by enzyme reactions containing inhibitors relative to the uninhibited control reactions was determined. Each sample was titrated in triplicate and result values were averaged for plotting and calculation of IC50 values. IC50 were determined by plotting log concentration versus inhibition values in the range from 10-90% inhibition.

Row | Compound | IC50 [nM]
1 | NC(=O)c1cccc2c1c1c(OCC(=O)NO)cccc1n2Cc1ccccc1 [Example 1, [[5-Carbamoyl-9-(phenylmethyl)carbazol-4-yl]oxy]-N-(hydroxy)acetamide] | 18.3
2 | CONC(=O)COc1cccc2c1c1c(C(N)=O)cccc1n2Cc1ccccc1 [Example 2, [[5-Carbamoyl-9-(phenylmethyl)carbazol-4-yl]oxy]-N-(methoxy)acetamide] | 18.7
3 | CCONC(=O)COc1cccc2c1c1c(C(N)=O)cccc1n2Cc1ccccc1 [Example 3, [[5-Carbamoyl-9-(phenylmethyl)carbazol-4-yl]oxy]-N-(ethoxy)acetamide] | 19.3

Now from value to compound:

Row | IC50 [nM] | Compound
4 | 17 | NC(=O)c1cccc2c1c1c(OCC(=O)NOCc3ccccc3)cccc1n2Cc1ccccc1 [Example 4, [[5-Carbamoyl-9-(phenylmethyl)carbazol-4-yl]oxy]-N-[(phenylmethyl)oxy]acetamide]
5 | 42.5 | CON(C)C(=O)COc1cccc2c1c1c(C(N)=O)cccc1n2Cc1ccccc1 [Example 5, [[5-Carbamoyl-9-(phenylmethyl)carbazol-4-yl]oxy]-N-(methoxy)-N-(methyl)acetamide]
6 | 29 | NC(=O)c1cccc2c1c1c(OCC(=O)NOCc3ccccc3)cc(-c3cccs3)cc1n2Cc1ccccc1 [Example 7, [[5-Carbamoyl-9-(phenylmethyl)-2-(thien-2-yl)carbazol-4-yl]oxy]-N-[(phenylmethyl)oxy]acetamide]
